Calls of active or inactive are those of the source. The rule behind the calls is not given here.
Key:
Type in all cases: functional, cell-based
[1] = Antiproliferative activity against human KB3-1 cells after 72 hrs; settings: KB 3-1, 72 h
HUVEC [2] = assay: Antiproliferative activity against human HUVEC cells after 72 hrs
HUVEC [3] = assay: Inhibition of VEGF-induced tubular formation in human HUVEC cells
HUVEC [4] = assay: Inhibition of VEGF-induced migration in human HUVEC cells

With CC(C)=C/C=C/C(C)=C/C=C/C(C)=C1/C(=O)C[C@H]2CC3(CC[C@]12C)OCCO3 the IC50 [1] was 20 µM and the IC50 (HUVEC [2]) was 13 µM.

For COC(=O)[C@]1(C)[C@@H]2CC[C@]3(C)\C(=C(C)/C=C/C=C(C)/C=C/C=C(C)C)C(=O)C[C@H]3[C@@]2(C)CC[C@H]1OC(C)=O (stereo in doubt), the IC50 [1] was 14 µM, the Activity (HUVEC [3]) was “Active” and the IC50 (HUVEC [2]) was 0.09 µM. The Activity (HUVEC [4]) was “Active”.

With COC(=O)[C@]1(C)[C@@H]2CC[C@]3(C)/C(=C(C)/C=C/C=C(C)/C=C/C=C(C)C)C(=O)C[C@H]3[C@@]2(C)CC[C@H]1OC(C)=O (stereo in doubt) the Activity (HUVEC [3]) was “Active” and the Activity (HUVEC [4]) was “Active”.

Work on CC(C)=C/C=C/C(C)=C/C=C/C(C)=C1/CC[C@H]2CC3(CC[C@]12C)OCCO3 yielded an IC50 [1] of 21 µM and an IC50 (HUVEC [2]) of 8.8 µM.

For COC(=O)[C@]1(C)[C@@H]2CC[C@]3(C)\C(=C(C)/C=C/C=C(C)\C=C\C=C(C)C)C(=O)C[C@H]3[C@@]2(C)CC[C@H]1OC(C)=O (stereo in doubt), the Activity (HUVEC [3]) was “Active” and the Activity (HUVEC [4]) was “Active”.

In the case of COC(=O)[C@]1(C)[C@@H]2CC[C@]3(C)/C(=C(C)/C=C/C=C(C)\C=C\C=C(C)C)C(=O)C[C@H]3[C@@]2(C)CC[C@H]1OC(C)=O (stereo in doubt), the Activity (HUVEC [3]) is reported as “Active” and the Activity (HUVEC [4]) is reported as “Active”.

CC(C)=C/C=C/C(C)=C/C=C/C(C)=C1/C(=O)C[C@H]2CC(=O)CC[C@]12C showed an IC50 [1] of 17 µM and an IC50 (HUVEC [2]) of 2.6 µM.

— ChEMBL document CHEMBL1145566, “Synthesis of BC-ring model of globostellatic acid X methyl ester, an anti-angiogenic substance from marine sponge” (Bioorg Med Chem Lett, 2008)
